Article PMC5711939, “The rumen microbiome: an underexplored resource for novel antimicrobial discovery” (NPJ Biofilms and Microbiomes, 2017)
Ends that are not written are not given here.

What was measured:
Ent. faecalis JH2-2 = experiment: microbe, parasite or virus in culture
Method: (§1) Peptides dissolved in sterile distilled water and comparator antibiotics dissolved in the appropriate solvents[38] were added to sterile U-bottom polypropylene 96-well microplates at desired concentrations.

[1] = tested on: List. monocytogenes NCTC 11994; experiment: microbe, parasite or virus in culture; settings: NCTC 11994
Method: as §1

S. aureus = experiment: microbe, parasite or virus in culture; settings: for MIC: strain RN4220, Sensitive, cation adjusted MHB, 18–24 h
Method: as §1

Sal. typhimurium SL1344 = experiment: microbe, parasite or virus in culture
Method: as §1

C. coli = tested on: C. coli
Method: as §1

E. coli K12 = experiment: MIC, broth microdilution; format: cell-based, Escherichia coli; settings: strain K12; cation adjusted MHB, 18–24 h
Method: as §1

EMRSA-15 = experiment: SPOT peptide library screen (resazurin fluorescence); format: cell-based, Staphylococcus aureus; design: unit not given here; settings: 75% reduction of fluorescence vs untreated controls; active IC75≤0.25, semi-active 0.25<IC75≤0.50, inactive IC75>0.5
Excerpt: (§2) The peptides in the created peptide library were synthesized based on the SPOT technique and pure peptides (≥95% purity) were synthesized on resin using solid phase Fmoc peptide chemistry.[16] The 135 peptides in the peptide library were screened for antimicrobial activity using both luminescent (Pseudomonas aeruginosa strain H1001)[34] and non-luminescent (epidemic methicillin resistant S. aureus EMRSA-15, Sal. typhimurium and E. coli K12) bacterial strains. Activity against non-luminescent bacteria strains was assessed by fluorescence readings (excitation/emission spectra of 560/590 nm) after the addition of resazurin dye (100 µm final concentration). The results from the screen were analysed using the MATLAB extension Gait-CAD as previously described.[35] Concentration values with a 75% reduction of luminescence or fluorescence (IC75) in relation to untreated controls were computed.

P. aeruginosa H1001 = experiment: SPOT peptide library screen (luminescence); format: cell-based, Pseudomonas aeruginosa; design: unit not given here; settings: 75% reduction of luminescence vs untreated controls; active IC75≤0.25, semi-active 0.25<IC75≤0.50, inactive IC75>0.5
Excerpt: as §2

MRSA strains [2] = experiment: Time kill kinetics; format: cell-based, Staphylococcus aureus; settings: 3× MIC, MHB
Method: Assessment of the bactericidal activity of peptides and comparator antibiotics was performed as previously described[39] using exponential-phase cultures of pathogens grown in MHB ([…]). Peptides were added at concentrations 3 times their MIC values. Experiments were performed in quadruplicates, and CFU/ml was calculated at different time points after over overnight incubation.

MRSA strains [3] = settings: sub-MIC levels, 25 days, daily passage
Method: To evaluate if populations of AMP-resistant bacteria could be selected, cultures were continuously exposed to Lynronne-1, Lynronne-2 and Lynronne-3 for a duration of 25 days, as previously described.[40] Briefly, broth microdilution susceptibility testing was performed using a standard doubling-dilution series of Lynronne-1, Lynronne-2 and Lynronne-3 concentrations on day 1.

HUVEC and HepG2 cells = settings: for total growth inhibition (TGI): HUVEC and HepG2 cells (cell line not given)
Method: Cytotoxic activity of the identified peptides was determined using HUVEC and HEPG2 cells as described previously.[41],[42] […] Significant responses were defined when observed cell growth was ≤50% and tube length was ≤70% using the proliferation and tube formation assays respectively. Permeabilization of eukaryotic membrane by Lynronne-1, Lynronne-2 and Lynronne-3 was also investigated using HepG2 cells as described previously.[43]

USA300 MRSA (BAA-1717) = experiment: Murine model of MRSA wound infection; format: in vivo, Staphylococcus aureus; settings: ICR mice, topical 2% once daily for 3 days, five mice/group
Method: The efficacy of Lynronne-1, Lynronne-2 and Lynronne-3 for treating a wound infection caused by USA300 community-associated methicillin resistant S. aureus (MRSA, strain BAA-1717) was evaluated using a murine wound model with ICR mice.[24] A sharp punch (ID 12 mm) was used to create excisional skin wounds in groups of five female ICR mice (5–6 weeks old). The mice were inoculated topically on the wound area (5 µl per wound) with 1.05 × 10^5 CFU/mouse of strain BAA-1717 suspended in 5 µl PBS. Peptides (2 or 10% w/v) in PBS (pH 7.4), control (PBS), and mupirocin 2% (Dermasafe® ointment) were topically applied (20 µl/mouse) directly to wounds 2 h post infection and once daily thereafter for three consecutive days. Test animals were sacrificed and the wound tissue was excised for enumeration of bacteria cells (CFU/wound). A two-log reduction in the bacterial count (≥99% reduction) relative to the control group indicates significant activity. Statistical significance (P < 0.05) was performed with one-way analysis of variance (ANOVA) followed by use of the Dunnett’s method.

[4] = tested on: S. aureus MRSA ATCC 33591; experiment: Neutropenic mouse MRSA thigh infection model; format: in vivo, Staphylococcus aureus; settings: neutropenic male ICR mice; 10 mg/kg IV once or twice (2 h or 2 and 8 h post infection)
Method: In the thigh infection model, using neutropenic mice,[25] groups of five male ICR mice weighing 22 ± 2 g were inoculated intramuscularly (IM) with S. aureus MRSA, ATCC 33591 (1.57 × 10^5 CFU/mouse (0.1 ml/thigh)) in the right thigh. Lynronne-1, Lynronne-2 and Lynronne-3 at 10 mg/kg were intravenously (IV) administered once 2 h post infection or twice 2 and 8 h post-infection. The reference substance, vancomycin, was also intravenously injected 2 and 8 h post-infection at 10 and 30 mg/kg. Test animals were sacrificed 26 h after inoculation and the infected thighs were excised and the bacterial burden (CFU/gram) was determined.

| Substance | MIC (Ent. faecalis JH2-2) | MIC [1] | MIC range for methicillin-resistant S. aureus (MRSA) strains (S. aureus) | MIC (S. aureus) | MIC (Sal. typhimurium SL1344) | MIC (C. coli) | MIC (E. coli K12) | IC75 values indicating activity classes, EMRSA-15 (EMRSA-15) | IC75 values indicating activity classes, P. aeruginosa H1001 (P. aeruginosa H1001) | Reduction in viable count (MRSA strains [2]; within the first 10 min) | Resistance acquisition during serial passage (MRSA strains [3]) | total growth inhibition (TGI) (HUVEC and HepG2 cells) | Colony count relative to the control group treated with PBS (USA300 MRSA (BAA-1717)) | Antimicrobial effect compared to the vehicle/control group (0.9% NaCl) [4] | Reduction in viable count (MRSA strains [2]; in 30 min) | Cytotoxic activity (HUVEC and HepG2 cells) |
| --- | --- | --- | --- | --- | --- | --- | --- | --- | --- | --- | --- | --- | --- | --- | --- | --- |
| LPRRNRWSKIWKKVVTVFS-NH2 [Lynronne-1] | 32 µg/mL | 32 µg/mL | 8 to 32 µg/mL | 32 µg/mL | 32 µg/mL | 64 µg/mL | 32 µg/mL | 0.38 | 0.14 | > 8 log10 CFU/ml | failed to produce mutants that were resistant | 67.1 µg/mL | significant decrease | not associated with any significant antimicrobial effects | – | – |
| NRFTARFRRTPWRLCLQFRQ-NH2 [Lynronne-3] | 64 µg/mL | 32 µg/mL | 32 to 128 µg/mL | 32 µg/mL | 64 µg/mL | 128 µg/mL | 64 µg/mL | 0.65 | 0.54 | > 8 log10 CFU/ml | failed to produce mutants that were resistant | 61.2 µg/mL | No significant decreases | not associated with any significant antimicrobial effects | – | – |
| HLRRINKLLTRIGLYRHAFG-NH2 [Lynronne-2] | 32 µg/mL | 32 µg/mL | – | 32 µg/mL | 32 µg/mL | >128 µg/mL | 64 µg/mL | 0.29 | 0.14 | – | failed to produce mutants that were resistant | – | No significant decreases | not associated with any significant antimicrobial effects | > 3 log10 CFU/ml | no cytotoxic activity |
